Assay results from patent publication EP1323432A1, “Complexes of cyclodextrins with potassium ion homeostasis regulators” (priority 2001, dated 2003).

Assays:
[1] = test system: Wistar Kioto male rats; test: Treadmill exercise: average duration of effort and recovery times after effort; type: in vivo; details: for average duration of the effort on the treadmill: after day 14 of treatment, oral by endogastric tube for 30 days; for average duration of the effort on the treadmill / Average recovery times after effort: versus placebo; for effort lasting (duration of the repeated effort on a treadmill) / rats able to sustain the effort on a treadmill already 30 minutes after suspending their exercise / time after which the remaining rats were able to repeat the effort: day 30; for effort lasting (duration of the repeated effort on a treadmill): effort repeated 30 minutes after end of exercise; for effort lasting (duration of the repeated effort on a treadmill) / time after which the remaining rats were able to repeat the effort: same doses as E4; for rats able to sustain the effort on a treadmill already 30 minutes after suspending their exercise: oral, complex 1 360 µg/kg/day, 0.4 mg/kg/day (complex 2 3 mg/kg/day), 6 mg/kg/day (complex 3 50 mg/kg/day); for time after which the remaining rats were able to repeat the effort: rats not able to repeat at 30 minutes; for Average recovery times after effort: day 30 of treatment
Procedure: (§1) Wistar Kioto male rats weighing 350 g were divided into nine groups of eight animals each (numbered 1 to 8 for each test group) and were treated with amounts of complex 1 equal to 20 µg/kg/day or 40 µg/kg/day of noncomplexed active ingredient, of complex 2 equal to 0.4 mg/kg/day of noncomplexed active ingredient and of complex 3 equal to 6 mg/kg/day of noncomplexed active ingredient, orally with an endogastric tube for 30 days, during which the animals were exercised and tested. The tested doses were the minimum ones required to restore blood K^+ levels after exercise. • Placebo group treated with physiological solution enriched with hydroxypropyl-β-cyclodextrin; • Group treated with 20 µg/kg/day of 6-[1-piperidinyl]pyrimidine-2,4-diamine-3-oxide; • Group treated with […]/day of 6-[1-piperidinyl]pyrimidine-2,4-diamine-3-oxide; • Group treated with 180 µg/kg/day of complex 1; • Group treated with 360 µg/kg/day of complex 1; • Group treated with 0.4 mg/kg/day of [±]-N-cyano-N-4-pyridinyl-N-[1,2,2-trimethylpropyl]-guanidine; • Group treated with 3 mg/kg/day of complex 2; • Group treated with 6 mg/kg/day of N-[5-sulfamoyl-1,3,4-thiadiazol-2-yl]acetamide; • Group treated with 50 mg/kg/day of complex 3.
(§2) Levels of venous plasma K^+ taken from the femoral vein before and after exercise were also measured once a week per rat in animals anesthetized with chloral hydrate at a dose of 0.5 g/kg.
Each test group was subjected to daily trials at an initial speed of 15 m/min. In the second week, the speed was increased to 25 m/min, in the third week it was raised to 35 m/min, and in the fourth week it was increased to 45 m/min. Administration was performed in the morning.
The treadmill was equipped with a sensor which was sensitive to the weight of the rat, set to a generated weight force of 60 g/30 sec, and inserted in the rear wall of the time measurement chamber.

[2] = test system: venous plasma K^+; test: Venous plasma K^+ levels before and after treadmill exercise; type: in vivo, Wistar Kioto male rats; details: for K^+ values 30 minutes after the end of the administration: 0.4 mg/kg/day (complex 2 3 mg/kg/day), 6 mg/kg/day (complex 3 50 mg/kg/day); for levels of K^+ of the animals that did not respond to treatment: up to 100 minutes after the end of the effort
Procedure: as §1, §2

[3] = Undesirable effects: hypotension (pressure measured with flow meter); set-up: species or system rats; details: rat, in vivo
Procedure: Pressure measurements were made by means of a T206 dual-channel flow meter by Transonic System Inc (Ithaca, NY, USA). In the control animals not subjected to stress or pharmacological treatments, pressure was 91±7 mm Hg (N=56 rats). The pressure values of the animals in our test groups prior to the beginning of pharmacological treatment were between 85 mm Hg and 105 mm Hg. The pressures were measured in the morning, at rest, prior to administration. […] The observed variations remained constant to the end of the treatment. […] The pressure values used to plot the chart refer to the values from day 21 to day 30 of treatment (Chart 4). [formula]

[4] = rat, in vivo
[5] = test system: venous plasma K^+; test: Venous plasma K^+ levels before and after treadmill exercise; type: in vivo, Wistar Kioto male rats; details: 5 animals per group; up to 100 minutes after the end of the effort; complex 1 180 µg/kg/day, noncomplexed 20 µg/kg/day
[6] = test system: animal models; details: doses of 1.5-5 mg/day, noncomplexed form; cited from earlier work
[7] = test system: patients affected by hypokalemias; details: guanidine 25 mg/day or more, acetamide 100 and 500 mg/day; cited from earlier work
[8] = animals that responded to treatment
[9] = animals that responded to treatment, same doses as E13

Q: For Nc1cc(N2CCCCC2)nc(N)[n+]1[O-] [6-[1-piperidinyl]pyrimidine-2,4-diamine-3-oxide], which “average duration of the effort on the treadmill” value [1] is on record?
A: significantly longer

Q: What about the “effort lasting (duration of the repeated effort on a treadmill)” value [1] of the same molecule?
A: 7.2 ± 1 min

Q: What about the “rats able to sustain the effort on a treadmill already 30 minutes after suspending their exercise” value [1] of the same molecule?
A: 6 rats out of 8

Q: And the “time after which the remaining rats were able to repeat the effort” value [1]?
A: 90 min

Q: And the “rats that responded to the treatment in terms of both functional and blood parameters” value ([1]; low dose: complex 1 180 µg/kg/day, noncomplexed 20 µg/kg/day)?
A: 3 rats out of 8

Q: And the “Average recovery times after effort” value [1]?
A: reduced significantly

Q: What about the “values of K^+ 30 minutes after the end of the effort” value [2] of the same molecule?
A: 5.2±2 mEq/l

Q: And the “levels of venous K^+ after 100 minutes” value ([2]; after the end of the effort)?
A: 4.5±1 mEq/l

Q: And the “values of K^+ after 60 minutes” value ([2]; after the end of the effort)?
A: 4.2±1 mEq/l

Q: What about the “reduction in average pressure” value [3] of the same molecule?
A: 8%

Q: What about the “average rate increase (heart rate)” value [4] of the same molecule?
A: 10±2%

Q: And the “K^+ levels of the animals that did not respond to the treatment” value [5]?
A: lower than 3 mEq/l

Q: What about the “effect on muscular weakness and muscular invalidity” value [6] of the same molecule?
A: capable of preventing muscular weakness and muscular invalidity

Q: Which results are given for CC(=O)Nc1nnc(S(N)(=O)=O)s1 [N-[5-sulfamoyl-1,3,4-thiadiazol-2-yl]acetamide]?
A: average duration of the effort on the treadmill [1]: significantly longer; effort lasting (duration of the repeated effort on a treadmill) [1]: 7 ± 2 min; rats able to sustain the effort on a treadmill already 30 minutes after suspending their exercise [1]: 4 rats out of 8; time after which the remaining rats were able to repeat the effort [1]: 80 min; Average recovery times after effort [1]: reduced significantly; K^+ values 30 minutes after the end of the administration [2, 8]: 6.2±2 mEq/l; K^+ values after 60 minutes [2, 9]: 5.8±1 mEq/l; levels of venous K^+ after 100 minutes [2, 9]: 5.6±1 mEq/l; levels of K^+ of the animals that did not respond to treatment ([2]; same doses as E13): below 3 mEq/l; reduction in average pressure [3]: 15%; average rate increase (heart rate) [4]: 9±2%; effect on muscular weakness, paralysis attacks and symptoms [7]: useful in reducing symptoms and muscular invalidity caused by exercise

Q: With “[±]-N-cyano-N-4-pyridinyl-N-[1,2,2-trimethylpropyl]-guanidine” as the molecule, how does the “average duration of the effort on the treadmill” value [1] read?
A: significantly longer

Q: And the “effort lasting (duration of the repeated effort on a treadmill)” value [1]?
A: 7.4 ± 1 min

Q: And the “rats able to sustain the effort on a treadmill already 30 minutes after suspending their exercise” value [1]?
A: 5 rats out of 8

Q: What about the “time after which the remaining rats were able to repeat the effort” value [1] of the same molecule?
A: 70 min

Q: What about the “Average recovery times after effort” value [1] of the same molecule?
A: reduced significantly

Q: What about the “K^+ values 30 minutes after the end of the administration” value [2, 8] of the same molecule?
A: 5.2±2 mEq/l

Q: And the “K^+ values after 60 minutes” value [2, 9]?
A: 4.8±1 mEq/l

Q: And the “levels of venous K^+ after 100 minutes” value [2, 9]?
A: 4.6±1 mEq/l

Q: What about the “levels of K^+ of the animals that did not respond to treatment” value ([2]; same doses as E13) of the same molecule?
A: below 3 mEq/l

Q: What about the “reduction in average pressure” value [3] of the same molecule?
A: 13%

Q: And the “average rate increase (heart rate)” value [4]?
A: 14±2%

Q: What about the “effect on muscular weakness, paralysis attacks and symptoms” value [7] of the same molecule?
A: capable of reducing muscular weakness and the frequency of paralysis attacks
